Data reported in patent US9079913B2, “Spiro-oxindole MDM2 antagonists” (The Regents of the University of Michigan, priority 2009, dated 2015).
Where two headings read alike, the source gives them in different places. Blank lines part the entries; values can stand above or below the compound they belong to.

Columns and labels:
[1] = system: Isogenic HCT-116 colon cancer cell lines; assay: cells; assay type: cell-based;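 further: cells grown in 96-well plates in McCoy's 5A medium with 10% FBS, exposed to compound for 4 days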
Experimental: Cells were seeded in 96-well flat bottom cell culture plates at a density of 2−3×10^3 cells/well with compounds and incubated for 4 days.

[2] = system: cancer cell lines with wild-type p53 / mutated or deleted p53 (ATCC); assay: Cell growth assay (WST-8), other cancer cell lines; assay type: cell-based
[3] = In vitro microsomal stability, rat; assay type: in vitro ADME; settings: for microsomal stability (in words): rat liver microsomes
[4] = Homo sapiens, HCT-116, read-out: HCT-116 (p53-/-) IC50, Table 19A, HCT-116 p53-/-, cell growth
[5] = Homo sapiens, HCT-116, read-out: HCT-116 (p53 wild-type) IC50, Table 19A, HCT-116 p53 wild-type, cell growth
[6] = Homo sapiens, LNCaP, Table 19A, LNCAP cells, p53 wild-type, cell growth, read-out: LNCAP (p53 wild-type) IC50
[7] = Homo sapiens, PC-3, Table 19A, PC-3 cells, deleted p53, cell growth, read-out: PC-3 (deleted p53) IC50
[8] = Homo sapiens, SJSA-1, Table 19A, SJSA-1 cells, p53 wild-type, cell growth, read-out: SJSA-1 (p53 wild-type) IC50

SMILES: CC(C)(C)C[C@H]1N[C@@H](C(=O)NCC[C@H]2CC[C@H](NS(C)(=O)=O)C2)[C@H](c2cccc(Cl)c2F)[C@@]12C(=O)Nc1cc(Cl)c(F)cc12 [MI-766]
- IC50 [1, 4]: 6900 ± 1400 nM
- IC50 [1, 5]: 700 nM
- IC50 [2, 6]: 900 nM
- IC50 [2, 7]: 5900 ± 2200 nM
- IC50 [2, 8]: 1700 ± 1400 nM

SMILES: CC(C)(C)C[C@H]1N[C@@H](C(=O)NCCCN2CCCC2)[C@H](c2cccc(Cl)c2F)[C@@]12C(=O)Nc1cc(Cl)ccc12 [MI-519-43]
- IC50 [1, 4]: 4100 ± 500 nM
- IC50 [1, 5]: 900 nM
- IC50 [2, 6]: 1000 nM
- IC50 [2, 7]: 3400 nM
- IC50 [2, 8]: 900 ± 100 nM
- % of compound remaining when incubated in rat liver microsomes ([3]; Table 17, 0 min): 100%
- % of compound remaining when incubated in rat liver microsomes ([3]; Table 17, 4 min): 92.3%
- % of compound remaining when incubated in rat liver microsomes ([3]; Table 17, 6 min): 86.1%
- % of compound remaining when incubated in rat liver microsomes ([3]; Table 17, 10 min): 70.6%
- % of compound remaining when incubated in rat liver microsomes ([3]; Table 17, 15 min): 69.9%
- % of compound remaining when incubated in rat liver microsomes ([3]; Table 17, 30 min): 62.5%
- microsomal stability (in words) [3]: improved microsomal stability over MI-219

- % of compound remaining when incubated in rat liver microsomes ([3]; Table 16, 0 min): 100%
- % of compound remaining when incubated in rat liver microsomes ([3]; Table 16, 4 min): 77.2%
- % of compound remaining when incubated in rat liver microsomes ([3]; Table 16, 6 min): 60.1%
- % of compound remaining when incubated in rat liver microsomes ([3]; Table 16, 10 min): 48%
- % of compound remaining when incubated in rat liver microsomes ([3]; Table 16, 15 min): 42.3%
- % of compound remaining when incubated in rat liver microsomes ([3]; Table 16, 30 min): 34.1%
SMILES: CC(C)N1CCN(CCNC(=O)[C@@H]2N[C@H](CC(C)(C)C)[C@]3(C(=O)Nc4cc(Cl)ccc43)[C@H]2c2cccc(Cl)c2F)CC1 [MI-130]

SMILES: CC(C)(C)C[C@H]1N[C@@H](C(=O)NC2CC(OC(=O)CN)C2)[C@H](c2cccc(Cl)c2F)[C@@]12C(=O)Nc1cc(Cl)ccc12 (some centres unmarked) [MI-519-69]
- IC50 [1, 4]: > 10000 nM
- IC50 [1, 5]: < 5000 nM
- IC50 [2, 6]: < 5000 nM
- IC50 [2, 7]: > 10000 nM
- IC50 [2, 8]: < 5000 nM

SMILES: CC(C)(C)C[C@@H]1N[C@@H](C(=O)NC2CCC(O)CC2)[C@H](c2cccc(F)c2F)[C@]12C(=O)Nc1cc(Cl)ccc12 (some centres unmarked) [MI-710201]
- IC50 ([1]; Homo sapiens, HCT-116, read-out: HCT-116 (p53 wild-type) IC50): 300 nM

SMILES: CC(C)(C)C[C@H]1N[C@@H](C(=O)NCC[C@H]2CC[C@@H](O)C2)[C@H](c2cccc(Cl)c2F)[C@@]12C(=O)Nc1cc(Cl)ccc12 [MI-753]
- IC50 ([1]; Homo sapiens, HCT-116, read-out: Inhibition of cell growth IC50, HCT116 p53 WT, Table 19B, HCT116 p53 WT): 2900 ± 100 nM
- IC50 ([1]; read-out: Inhibition of cell growth IC50, HCT116 p53 KO, Table 19B, HCT116 p53 KO): 21800 ± 4900 nM
- IC50 ([2]; Homo sapiens, LNCaP, Table 19B, LNCaP cells, read-out: Inhibition of cell growth IC50, LNCaP): 3200 ± 300 nM
- IC50 ([2]; Table 19B, PC3 cells, read-out: Inhibition of cell growth IC50, PC3): 24700 ± 2700 nM

- % of compound remaining when incubated in rat liver microsomes ([3]; Table 16, 0 min): 100%
- % of compound remaining when incubated in rat liver microsomes ([3]; Table 16, 4 min): 76%
- % of compound remaining when incubated in rat liver microsomes ([3]; Table 16, 6 min): 57.9%
- % of compound remaining when incubated in rat liver microsomes ([3]; Table 16, 10 min): 35.4%
- % of compound remaining when incubated in rat liver microsomes ([3]; Table 16, 15 min): 27.7%
- % of compound remaining when incubated in rat liver microsomes ([3]; Table 16, 30 min): 21%
SMILES: CC(C)(C)CC1NC(C(=O)NCCN2CCOCC2)C(c2cccc(Cl)c2F)C12C(=O)Nc1cc(Cl)ccc12 (centres unmarked) [MI-63]

SMILES: CC(C)(C)C[C@H]1N[C@@H](C(=O)NC2CCC(O)CC2)[C@H](c2cccc(Cl)c2F)[C@@]12C(=O)Nc1cc(F)c(F)cc12 (some centres unmarked) [MI-786]
- IC50 ([2]; read-out: SJSA-1 (p53 wild-type) IC50): 800 nM

- % of compound remaining when incubated in rat liver microsomes ([3]; Table 16, 0 min): 100%
- % of compound remaining when incubated in rat liver microsomes ([3]; Table 16, 4 min): 95.1%
- % of compound remaining when incubated in rat liver microsomes ([3]; Table 16, 6 min): 88.1%
- % of compound remaining when incubated in rat liver microsomes ([3]; Table 16, 10 min): 84.7%
- % of compound remaining when incubated in rat liver microsomes ([3]; Table 16, 15 min): 82.1%
- % of compound remaining when incubated in rat liver microsomes ([3]; Table 16, 30 min): 79%
SMILES: CC(C)(C)CC1NC(C(=O)NCCN2CCCC2)C(c2cccc(Cl)c2F)C12C(=O)Nc1cc(Cl)ccc12 (centres unmarked) [MI-120]

- % of compound remaining when incubated in rat liver microsomes ([3]; Table 16, 0 min): 100%
- % of compound remaining when incubated in rat liver microsomes ([3]; Table 16, 4 min): 74.4%
- % of compound remaining when incubated in rat liver microsomes ([3]; Table 16, 6 min): 52.5%
- % of compound remaining when incubated in rat liver microsomes ([3]; Table 16, 10 min): 41.1%
- % of compound remaining when incubated in rat liver microsomes ([3]; Table 16, 15 min): 36.7%
- % of compound remaining when incubated in rat liver microsomes ([3]; Table 16, 30 min): 33.1%
SMILES: CCN1CCN(CCNC(=O)C2NC(CC(C)(C)C)C3(C(=O)Nc4cc(Cl)ccc43)C2c2cccc(Cl)c2F)CC1 (centres unmarked) [MI-129]

SMILES: CC(C)(C)C[C@@H]1N[C@@H](C(=O)NC2CCC(O)CC2)[C@H](c2cccc(Cl)c2F)[C@]12C(=O)Nc1cc(Cl)ccc12 (some centres unmarked) [MI-77301]
- IC50 [1, 5]: 100 nM
- IC50 ([2]; Homo sapiens, LNCaP, read-out: LNCAP (p53 wild-type) IC50): 100 nM
- IC50 ([2]; Homo sapiens, PC-3, read-out: PC-3 (deleted p53) IC50): 13000 nM
- IC50 ([2]; Homo sapiens, SJSA-1, read-out: SJSA-1 (p53 wild-type) IC50): 800 nM

SMILES: CC(C)(C)C[C@H]1N[C@@H](C(=O)NC2CCN(CC(F)F)CC2)[C@H](c2cccc(Cl)c2F)[C@@]12C(=O)Nc1cc(Cl)ccc12 [MI-519-66]
- IC50 ([1]; Homo sapiens, HCT-116, read-out: HCT116p53KO IC50, Table 19D, HCT116 p53KO): 5510 nM
- IC50 ([1]; Homo sapiens, HCT-116, read-out: HCT116p53WT IC50, Table 19D, HCT116 p53WT): < 2000 nM
- IC50 ([2]; Homo sapiens, LNCaP, Table 19D, LNCaP cells, read-out: LNCaP IC50): < 3000 nM
- IC50 ([2]; Homo sapiens, PC-3, Table 19D, PC3 cells, read-out: PC3 IC50): 6890 nM
- IC50 ([2]; Homo sapiens, Table 19D, SJSA-1 cells, unit inferred, read-out: SJSA-1): < 3000 nM

- % of compound remaining when incubated in rat liver microsomes ([3]; Table 17, 0 min): 100%
- % of compound remaining when incubated in rat liver microsomes ([3]; Table 17, 4 min): 96.8%
- % of compound remaining when incubated in rat liver microsomes ([3]; Table 17, 6 min): 97.3%
- % of compound remaining when incubated in rat liver microsomes ([3]; Table 17, 10 min): 85.6%
- % of compound remaining when incubated in rat liver microsomes ([3]; Table 17, 15 min): 72.1%
- % of compound remaining when incubated in rat liver microsomes ([3]; Table 17, 30 min): 61.5%
SMILES: CC(C)(C)C[C@H]1N[C@@H](C(=O)NCCN2CCCC2)[C@H](c2cccc(Cl)c2F)[C@@]12C(=O)Nc1cc(Cl)c(F)cc12 [MI-763]
- microsomal stability (in words) [3]: improved microsomal stability over MI-219
